Laboratory results from patent US12320799B2, “Methods of measuring signaling pathway activity for selection of therapeutic agents” (Celcuity Inc., priority 2017, dated 2025).

Experiments:
Assay type in all cases: cell-based, human
[1] = system: FGFR signaling pathway; test: CELx multiple pathway test, impedance biosensor cell adhesion, FGF/BGJ398 pair; conditions: activator FGF
Source text: (§1) Biosensor and transducer: A 96-well impendence E-Plate (ACEA, San Diego, CA) was placed onto an xCELLigence RTCA MP Station impendence biosensor (ACEA, San Diego, CA). The biosensor measured simultaneously the impedance of every well. The change in impedance for a particular well is proportional to the number of cells and type of attachment the cells have with the impedance microplate. Changes in impedance indicate a response to perturbation of these small cell populations. Coatings: The 96-E-Plate were wells were coated with fibronectin and or collagen. Collagen is purchased from Advanced BioMatrix (Carlsbad, CA) and fibronectin from Sigma-Aldrich (St. Louis, MO). Tissue and cell samples: A total of 18 samples of human tumor cells from breast, lung, colon, ovarian, kidney, bladder cancer were studied. For each of these six different cancer types, tumor cell samples from three different patients were tested. Any biomarkers that are used to guide selection of targeted therapy are listed in Table 18 for each patient if they were present. Signaling Pathways activator agent and targeted therapeutic pairs: Eleven different signaling pathways were studied in each human tumor cell sample using […] signaling pathway activator agent and targeted therapeutic pairs. Each of the signaling pathway activator agent and targeted therapeutic pairs affect the same signaling pathway. Each of the signaling pathway activator agents is a well-characterized and specific agonist of its associated signaling pathway and each of the targeted therapeutic agents is a well-characterized and specific antagonist of the same associated signaling pathway. The signaling pathway activator agents and targeted therapeutics used to characterize the activity level of the associated signaling pathway are summarized in Table 16 below:
(§2) Other Reagents: Standard media antibiotics (e.g. penicillin, streptomycin) and other buffers were purchased and used as delivered from ATCC (Manassas, VA, USA) or Life Technologies (Grand Island, NY). Procedure: For each test of a patient cell sample with a pair of signaling pathway activator and targeted therapeutic agents, six wells were seeded with approximately 15,000 cells in 120 uL culture media. Twenty microliters of the targeted therapeutic agent were added to two wells of each patient's cells and 20 microliters of standard media were added to the other four wells for each patient 18 hours in advance of addition of the signaling pathway activator agent. Signaling pathway stimulation was initiated with the addition of 20 ul of the signaling pathway activator agent in the two wells that received a targeted therapeutic agent and in two additional wells for each patient's set of cells without the targeted therapeutic. The impedance recording of attachment and adhesion change was performed at 37° C., 5% C02. Data was recorded on a continuous basis throughout the test, where the data presented is from the initial baseline level of cell attachment compared to the subsequent effects following the targeted therapeutic agent and the signaling pathway activator agent additions on the 18 different patient samples. Results:
(§3) Table 17 presents the results, expressed as an output value, for each of the 167 tests performed using the methods described above. For each of the 18 patient samples, up to 11 different signaling pathways were tested. The output value represents the difference between the amount of cell adhesion change resulting from addition of the signaling pathway activator agent and the amount of cell adhesion change resulting from addition of the targeted therapeutic agent.

[2] = system: IGFR signaling pathway; test: CELx multiple pathway test, impedance biosensor cell adhesion, IGF/Linsitinib pair; conditions: activator IGF
Source text: as §1, §2, §3

[3] = system: EGFR signaling pathway; test: CELx multiple pathway test, impedance biosensor cell adhesion, EGF/Neratinib pair; conditions: activator EGF
Source text: as §1
as §2, with “samples.” for “samples. Results:”
as §3, with “For” for “Table 17 presents the results, expressed as an output value, for each of the 167 tests performed using the methods described above. For”

[4] = system: HER3 signaling pathway; test: CELx multiple pathway test, impedance biosensor cell adhesion, NRG1/Neratinib pair; conditions: activator NRG1
Source text: as §1, §2, §3

[5] = system: c-MET/HGF signaling pathway; test: CELx multiple pathway test, impedance biosensor cell adhesion, HGF/SGX-523 pair; conditions: activator HGF
Source text: as §1
as §2, with “samples.” for “samples. Results:”
as §3, with “For” for “Table 17 presents the results, expressed as an output value, for each of the 167 tests performed using the methods described above. For”

## CCN1CCN(c2ccc(Nc3cc(N(C)C(=O)Nc4c(Cl)c(OC)cc(OC)c4Cl)ncn3)cc2)CC1 [BGJ398]
[1]; C2 breast tumor cells
  output value: 14
[1]; C21 breast tumor cells
  output value: 15
[1]; C23 lung tumor cells
  output value: 1
[1]; C24 lung tumor cells
  output value: −6
[1]; C25 lung tumor cells
  output value: 14
[1]; C34 breast tumor cells
  output value: 33
[1]; C54 ovarian tumor cells
  output value: 65
[1]; C62 colorectal tumor cells
  output value: 4
[1]; C69 ovarian tumor cells
  output value: −19
[1]; C71 colorectal tumor cells
  output value: 43
[1]; C72 colorectal tumor cells
  output value: −20
[1]; C77 ovarian tumor cells
  output value: 12
[1]; C81 bladder tumor cells
  output value: 75
[1]; C82 bladder tumor cells
  output value: −94
[1]; C87 bladder tumor cells
  output value: 8
[1]; C88 kidney tumor cells
  output value: 251
[1]; C90 kidney tumor cells
  output value: −47
[1]; C92 kidney tumor cells
  output value: 6

## C[C@]1(O)C[C@@H](c2nc(-c3ccc4ccc(-c5ccccc5)nc4c3)c3c(N)nccn32)C1 [Linsitinib]
[2]; C2 breast tumor cells
  output value: 20
[2]; C21 breast tumor cells
  output value: 69
[2]; C23 lung tumor cells
  output value: 32
[2]; C24 lung tumor cells
  output value: −61
[2]; C25 lung tumor cells
  output value: −44
[2]; C34 breast tumor cells
  output value: 34
[2]; C54 ovarian tumor cells
  output value: −8
[2]; C62 colorectal tumor cells
  output value: 6
[2]; C69 ovarian tumor cells
  output value: −111
[2]; C71 colorectal tumor cells
  output value: −2
[2]; C72 colorectal tumor cells
  output value: −22
[2]; C77 ovarian tumor cells
  output value: 56
[2]; C81 bladder tumor cells
  output value: 351
[2]; C82 bladder tumor cells
  output value: 21
[2]; C87 bladder tumor cells
  output value: 210
[2]; C88 kidney tumor cells
  output value: 143
[2]; C90 kidney tumor cells
  output value: −607
[2]; C92 kidney tumor cells
  output value: 73

## CCOc1cc2ncc(C#N)c(Nc3ccc(OCc4ccccn4)c(Cl)c3)c2cc1NC(=O)/C=C/CN(C)C [Neratinib]
[3]; C2 breast tumor cells
  output value: −19
[3]; C21 breast tumor cells
  output value: 503
[3]; C23 lung tumor cells
  output value: 298
[3]; C24 lung tumor cells
  output value: 245
[3]; C25 lung tumor cells
  output value: 209
[3]; C34 breast tumor cells
  output value: 247
[3]; C54 ovarian tumor cells
  output value: 654
[3]; C62 colorectal tumor cells
  output value: 28
[3]; C69 ovarian tumor cells
  output value: 614
[3]; C71 colorectal tumor cells
  output value: 179
[3]; C72 colorectal tumor cells
  output value: 5
[3]; C77 ovarian tumor cells
  output value: −78
[3]; C81 bladder tumor cells
  output value: 344
[3]; C82 bladder tumor cells
  output value: 345
[3]; C87 bladder tumor cells
  output value: 334
[3]; C88 kidney tumor cells
  output value: −67
[3]; C90 kidney tumor cells
  output value: 150
[3]; C92 kidney tumor cells
  output value: 290
[4]; C2 breast tumor cells
  output value: −1
[4]; C21 breast tumor cells
  output value: 234
[4]; C23 lung tumor cells
  output value: 373
[4]; C24 lung tumor cells
  output value: 194
[4]; C25 lung tumor cells
  output value: 116
[4]; C34 breast tumor cells
  output value: 4
[4]; C54 ovarian tumor cells
  output value: 244
[4]; C62 colorectal tumor cells
  output value: 2
[4]; C69 ovarian tumor cells
  output value: 178
[4]; C71 colorectal tumor cells
  output value: 28
[4]; C72 colorectal tumor cells
  output value: 5
[4]; C77 ovarian tumor cells
  output value: 128
[4]; C81 bladder tumor cells
  output value: 13
[4]; C82 bladder tumor cells
  output value: 31
[4]; C87 bladder tumor cells
  output value: 10
[4]; C88 kidney tumor cells
  output value: 5
[4]; C90 kidney tumor cells
  output value: −32
[4]; C92 kidney tumor cells
  output value: 36

## Cn1cc(-c2ccc3nnc(Sc4ccc5ncccc5c4)n3n2)cn1 [SGX-523]
[5]; C2 breast tumor cells
  output value: 0
[5]; C21 breast tumor cells
  output value: 222
[5]; C23 lung tumor cells
  output value: 469
[5]; C24 lung tumor cells
  output value: 78
[5]; C25 lung tumor cells
  output value: 132
[5]; C34 breast tumor cells
  output value: 6
[5]; C54 ovarian tumor cells
  output value: 123
[5]; C62 colorectal tumor cells
  output value: −6
[5]; C69 ovarian tumor cells
  output value: −27
[5]; C71 colorectal tumor cells
  output value: 53
[5]; C72 colorectal tumor cells
  output value: −110
[5]; C77 ovarian tumor cells
  output value: 227
[5]; C81 bladder tumor cells
  output value: 419
[5]; C82 bladder tumor cells
  output value: 41
[5]; C87 bladder tumor cells
  output value: 28
[5]; C88 kidney tumor cells
  output value: −13
[5]; C90 kidney tumor cells
  output value: 368
[5]; C92 kidney tumor cells
  output value: 154
